Source: patent publication US20260374829A1, “METHODS AND PLATFORM RELATED TO FLUORESCENT PROTEIN BIOSENSORS” (BOARD OF REGENTS, THE UNIVERSITY OF TEXAS SYSTEM, priority 2023, published 2026)

Key:
[1] = system: free ADPR sensor (cpVenus integrated between amino acids 118 and 119 of Shewanella oneidensis NrtR, Uniprot Q8EFJ3; K435A, S436D, D122N), SEQ ID NO: 1; test: Fluorescence response of purified free ADPR sensor to ligands in vitro; format: binding; conditions: role: ligand; for sensor fluorescence response (in words): FIG. 5A; for sensor responsivity (in words): structurally related molecules, FIG. 5
From the text: (§1) The sensor is based on a circularly-permutated single fluorescent protein design (Baird et al, 1999 PNAS and reviewed in Nasu et al, 2021 Nat Chem Biol). For the fluorescence readout, the GFP-derived fluorescent protein, Venus, was used. Venus was circularly permutated and reforms to its fluorescent beta barrel fold by introducing a cut between amino acids 144 and 145 and connecting its original N- and C-termini with a 5 amino acid GGSGG linker sequence (circularly permutated Venus now referred to as cpVenus or cpV). Circular permutation permits attachment of an analyte binding domain in close proximity to the chromophore of Venus. The analyte binding domain confers selectivity of ligand binding to the sensor. The Nudix-like bacterial transcription factor NrtR from Shewanella oneidensis was used that is an ADPR-dependent transcriptional repressor (Rodionov et al, 2008 Nucleic Acids Res; Gao et al, 2019 eLIFE). The cpV protein was integrated between amino acids 118 and 119 in the sequence of NrtR (Uniprot Q8EFJ3).
Based on these analyses, cpV integrated into site 118/119 in NrtR was chosen for further analyses. This site is adjacent to the hinge region of the ligand-binding site, and it is within an alpha-helix that undergoes a disruptive loss of secondary structure when free ADPR binds (FIG. 1). The model is that this structural change is transduced to the nearby chromophore of cpV to cause a change in fluorescence intensity. This may occur through disruption of the chromophore or shifting the pKa of the chromophore.
Due to the compact nature of NrtR, attempts to use truncation to eliminate the DNA-binding domain appeared to destabilize the whole protein and thus could not be used. Instead, three point mutations were identified and used to ablate the outward facing overall positive change on this domain. These point mutations are distinct from the ligand-binding domain. The specific sites and their mutations (K435A and S436D) were identified through empirical screening and it was determined that in combination they alleviated aggregation of the sensor when it was ectopically expressed (FIG. 2).
The mutation D122N was also incorporated to reduce the number of polar and charged side-chains in proximity to the sensor's chromophore. The rationale was that charged residues could shift the local pKa of the chromophore promoting in its protonation. Introduction of D122N improved the brightness of the sensor and stabilized its pH-sensitivity between pH 7.4-8.0 (FIG. 3)
The sequence of the free ADPR sensor is shown in SEQ ID NO: 1.
The purified sensor (FIG. 4) decreased in fluorescence intensity with addition of free ADPR. At high concentrations, it saturated with ~80% diminishment of sensor brightness that represented an […] dose-dependent response (FIG. 4B, red). […] It was determined that the sensor responds to free ADPR with a Kd~2 μM±1 μM and is thus poised to detect intracellular free ADPR concentrations (Heiner, et al, 2006 Biochem J; Gasser and Guse, 2005 J Chromatogr B Analyt Technol Biomed Life Sci; Gasser et al, 2006 J Biol Chem).

free ADPR sensor = test: Free ADPR sensor response in live cells to H2O2 treatment (confocal microscopy); format: cell-based; conditions: role: activator (oxidation stress), acute H2O2 treatment, FIG. 7
Method: (§2) Values are mean (F/F0)±SD, analyzed by confocal microscopy.
(§3) With confocal imaging, it was determined that the free ADPR sensor responded in live cells to an accumulation of free ADPR upon oxidation stress by acute H2O2 treatment (FIG. 7). In this experimental paradigm, H2O2 induces PARP1/2 to generate poly-ADPR chains, and due to the activities of glycohydrolases, this in turn leads to increased levels of free ADPR monomers. […] The generation of free ADPR was confirmed by a GCaMP7s sensor that monitored the resulting Ca^2+ influx from activation of co-expressed TRPM2 (FIG. 7B).

TRPM2 = TRPM2 response in live cells to H2O2 treatment, Ca2+ influx reported by GCaMP7s; format: cell-based; conditions: role: activator (via increased free cytosolic ADPR), GCaMP7s readout, FIG. 7B
Method: as §2, §3

[2] = system: free ADPR sensor no binding control R98E (cpVenus in Shewanella oneidensis NrtR, Uniprot Q8EFJ3; binding pocket mutant R98E), SEQ ID NO: 2; test: Fluorescence response of non-binding control sensor to ligands in vitro; conditions: role: ligand, FIG. 4B
From the text: as §1
The purified sensor (FIG. 4) decreased in fluorescence intensity with addition of free ADPR. At high concentrations, it saturated with ~80% diminishment of sensor brightness that represented an ~4-fold dose-dependent response (FIG. 4B, red). […]

PARP1/2 = test: Free ADPR sensor response in live cells after acute H2O2 treatment (confocal imaging), with PARP1/2 inhibitor; format: cell-based; conditions: role: inhibitor (PARP1/2), FIG. 7
Method: as §2, §3

SMILES	sensor fluorescence response (in words) [1]	further results
Nc1ncnc2c1ncn2[C@@H]1O[C@@H]2COP(=O)(O)OP(=O)(O)OC[C@H]3OC(O[C@@H]1[C@@H]2O)[C@H](O)[C@@H]3O [2′-cyclic ADPR]	does not respond	
Nc1ncnc2c1ncn2[C@H]1C[C@H](O)[C@@H](COP(=O)(O)OP(=O)(O)OC[C@H]2OC(O)[C@H](O)[C@@H]2O)O1 (stereo partly drawn) [2′-deoxy ADPR]	responds	
Nc1ncnc2c1ncn2[C@@H]1O[C@@H]2COP(=O)(O)OP(=O)(O)OC[C@H]3OC(O[C@H]2[C@H]1O)[C@H](O)[C@@H]3O [3′-cyclic ADPR]	does not respond	
Nc1ncnc2c1ncn2[C@@H]1O[C@H](COP(=O)(O)OP(=O)(O)O)[C@@H](O)[C@H]1O [ADP, adenosine diphosphate]	does not respond	sensor responsivity (in words) [1]: minimal responsivity
Nc1ncnc2c1ncn2[C@@H]1O[C@H](COP(=O)(O)O)[C@@H](O)[C@H]1O [AMP, adenosine monophosphate]	does not respond	
Nc1ncnc2c1ncn2[C@@H]1O[C@H](COP(=O)(O)OP(=O)(O)OP(=O)(O)O)[C@@H](O)[C@H]1O [ATP, adenosine triphosphate]	does not respond	sensor responsivity (in words) [1]: minimal responsivity
OO [H2O2]		free ADPR sensor response to accumulation of free ADPR (in words) (free ADPR sensor): responded; TRPM2 response, influx of intracellular Ca2+ (in words) (TRPM2): responds with an influx of intracellular Ca^2+
Nc1ncnc2c1ncn2[C@@H]1O[C@H](COP(=O)(O)OP(=O)(O)OC[C@H]2O[C@@H]([n+]3cccc(C(=O)O)c3)[C@H](O)[C@@H]2O)[C@@H](O)[C@H]1O [NAAD^+]	does not respond	
NC(=O)C1=CN([C@@H]2O[C@H](COP(=O)(O)OP(=O)(O)OC[C@H]3O[C@@H](n4cnc5c(N)ncnc54)[C@H](O)[C@@H]3O)[C@@H](O)[C@H]2O)C=CC1 [NADH, nicotinamide adenine dinucleotide]	does not respond	
NC(=O)c1ccc[n+]([C@@H]2O[C@H](COP(=O)(O)OP(=O)(O)OC[C@H]3O[C@@H](n4cnc5c(N)ncnc54)[C@H](O)[C@@H]3O)[C@@H](O)[C@H]2O)c1 [NAD^+, oxidized nicotinamide adenine dinucleotide]	does not respond	
Nc1ncnc2c1ncn2[C@@H]1O[C@H](COP(=O)(O)OP(=O)(O)OC[C@H]2O[C@@H]([n+]3cccc(C(=O)O)c3)[C@H](O)[C@@H]2O)[C@@H](O)[C@H]1OP(=O)(O)O [NaADP^+]	does not respond	
CC(=O)O[C@H]1C(O)O[C@H](COP(=O)(O)OP(=O)(O)OC[C@H]2O[C@@H](n3cnc4c(N)ncnc43)[C@H](O)[C@@H]2O)[C@H]1O (stereo partly drawn) [O-Acetyl ADPR]	responds	
O=C(CO)[C@H](O)[C@H](O)COP(=O)(O)O [Ribulose-5-Phosphate]	does not respond	
N=c1c2ncn3c2ncn1[C@@H]1O[C@H](COP(=O)(O)OP(=O)(O)OC[C@H]2O[C@@H]3[C@H](O)[C@@H]2O)[C@@H](O)[C@H]1O [cyclic ADPR]	does not respond	
Nc1ncnc2c1ncn2[C@@H]1O[C@H](COP(=O)(O)OP(=O)(O)OC[C@H]2OC(O)[C@H](O)[C@@H]2O)[C@@H](O)[C@H]1O (stereo partly drawn) [free ADPR, Adenosine 5′Di-Phosphate Ribose]	responds	fluorescence intensity with increasing free ADPR concentrations (in words) ([1]; FIG. 4B, mean of n=3): decreases; diminishment of sensor brightness at saturation ([1]; at high concentrations (saturated)): ~ 80%; dose-dependent response (fold) ([1]; fluorescence intensity, at saturation): ~ 4 fold; response of binding mutant to free ADPR (in words) [2]: did not respond
O=C(c1cc(Cc2n[nH]c(=O)c3ccccc23)ccc1F)N1CCN(C(=O)C2CC2)CC1 [olaparib]		effect on H2O2-induced free ADPR sensor responses (in words) (PARP1/2): eliminated sensor responses
Nc1ncnc2c1ncn2[C@@H]1O[C@H](COP(=O)(O)OP(=O)(O)OC[C@H]2OC(O)[C@H](O)[C@@H]2O)[C@@H](O)[C@H]1OP(=O)(O)O (stereo partly drawn) [phospho ADPR]	responds	
